Tests used:
[1] = tested on: HTM cells grown on SU-8 scaffolds (morphology, F-actin cytoskeleton); test: SEM and confocal imaging of HTM cells on SU-8 scaffolds after Lat-B perfusion; type: cell-based, human; details: FIG. 15F
Text: 11. Follow up cell characterization studies may be conducted as desired with standard techniques well known to those of skill in the art. For this invention, samples were fixed and stained for SEM and confocal image analysis as described herein (FIGS. 11-15).
Cells were characterized using standard procedures for SEM, Immunocytochemistry and confocal imaging, well known to those of skill in the art.
(§1) A flow system apparatus for the controlled flow pressure measurement was constructed as shown in FIG. 2C was contained in a perfusion chamber housing comprised of at least a perfusion chamber with an integrated pressure transducer (FIG. 2C; 206), the sterilized, HTM biocompatible coated, SU-8 3-D micro- and nanostructured scaffold with or without HTM cells placed within a cell-culture insert (FIG. 2A; 202) and were secured in the scaffold holder, comprising at least a bottom element adapted for effluent (FIG. 2A; 203), a top element adapted for media entry (FIG. 2A; 201) inside the perfusion chamber (FIG. 2c). This flow system allowed for simultaneous control of the flow and measurement of the transmembrane pressure, permitting the exploration of the outflow characteristics of the in vitro HTM model. […] Back pressures were continuously monitored with a pressure transducer (FIG. 2C; 206) and recorded. […]

[2] = tested on: bioengineered HTM (primary HTM cells on gelatin-coated 12 μm SU-8 scaffolds); test: Perfusion of bioengineered HTM on SU-8 scaffold: transmembrane pressure at constant flow; type: cell-based, human
Text: 1. The flow system apparatus (FIG. 2) incorporating the principles and features of this invention is contained within a controlled environment, which herein comprises of a stand-alone perfusion chamber, with a cell growth medium entry system (FIG. 2c; 204) and a screening agent (for example a glaucoma drug) entry system (FIG. 2c; 204) as shown in FIG. 2c. The system allows for the screening agent to be added to the perfusate at a pre-determined concentration for a pre-determined number of hours. […]
8. […] Back pressures were continuously monitored with a pressure transducer and recorded. […]
as §1, with “2c).” for “2c). This flow system allowed for simultaneous control of the flow and measurement of the transmembrane pressure, permitting the exploration of the outflow characteristics of the in vitro HTM model.”

## C/C1=C/C(=O)O[C@@H]2C[C@@H](CC[C@H](C)/C=C\CC1)O[C@@](O)([C@@H]1CSC(=O)N1)C2 [Lat-B, latruncunlin-B]
[1]
  F-actin cytoskeleton (confocal): elongated actin fibers were disturbed and became punctate actin bundles
[2]; FIG. 16, indicates decreased flow resistance
  perfusion pressure of the artificial trabecular meshwork after Lat-B treatment: decreased dramatically
[2]; Lat-B added to the perfusate at 2 μM for 4 hours, constant flow, 34° C., N=8, p<0.05 (FIG. 16)
  decrease of the resistance to flow: 92±6%

Source: patent publication US9506907B2, “Bioengineered human trabecular meshwork for biological applications” (The Research Foundation of State University of New York, priority 2012, dated 2016)
